# Experiments:
# Type in all cases: biochemical
# [1] = target: T1, Rhizoupus oryzae lipase ROL (Rhizopus oryzae, UniProt P61872); experiment: Ester synthesis activity of surfactant-treated lyophilized lipase ROL by GC analysis; conditions: protein 0.2 mg·mL^−1
# T1 construct: purchased Sigma-Aldrich Co., Ltd
# Description: (§1) (2) Determination of Ester Synthesis Activity of the Lipase by GC Analysis
# (§2) Substrate solution A: 48.5 mL of n-octanoic acid is dissolved in 250 mL of n-heptane in a volumetric flask.
# (§3) Substrate solution B: 17.5 mL of absolute ethanol is dissolved in 250 mL of n-heptane in a volumetric flask.
# (§4) Internal standard: 2-hexanol/n-heptane (35 g·L^−1).
# (§5) Standard sample: 10 g of n-octanoate is dissolved in 1000 mL of n-heptane in a volumetric flask.
# (§6) 1 mL substrate solution A and substrate solution B are added in a 5 mL Eppendorf tube respectively, then 20 mg lipase powder (or lyophilized powder) is added. The reaction is carried out at 40° C. and with shaking at 150 rpm for 30 min. Remove the lipase powder by centrifugation or membrane filtration. Then 0.1 mL of internal standard is added in 0.4 mL of filtrate or supernatant and mixed. Measure the content of n-octanoate in the mixture above by GC analysis.
# (§7) The gas chromatograph (6820, Agilent Instruments) is equipped with a AC20 (PEG20000) capillary column and a FID detector. Nitrogen was used as the carrier gas. The oven temperature was programmed to start at 90° C. for 1 min and then be elevated to 200° C. for 5 min at 10° C.·min^−1. The injector and detector temperatures were set at 250° C.
# (§8) Definition of enzyme activity: One unit of ester synthesis activity is defined as the amount of enzyme that esterifies 1 micromole of n-octanoate per min.
# (§9) Specific activity: the activity of lipase per milligram of total protein in the lipase preparation.
# (§10) Total recovery: the percentage of the activity after a treatment to that before the treatment
# (§11) Add an equal volume of high-concentration surfactant solution into the enzyme solution. The final protein concentration was […] and the surfactant concentration was 10 mM. After mixed thoroughly, the mixture was lyophilized and kept in dry condition.
# (§12) Commercial lipase ROL was purchased from Sigma-Aldrich Co., Ltd. ROL is a non-immobilized lipase. Dissolve the ROL powder in water and centrifuge to obtain the supernatant containing the ROL lipase that would be regulated to improve its ester synthesis activity by adjusting the final protein concentration to 0.2 mg·mL^−1 and adding surfactants to the final concentration of 10 mM.
# (§13) Commercial lipase ROL was purchased from Sigma-Aldrich Co., Ltd. and is a non-immobilized lipase. Dissolve the ROL powder in water, centrifuge to obtain the supernatant and treat the supernatant with different concentrations of surfactant LPC14 (the final protein concentration was 0.2 mg·mL^−1).
# [2] = target: T1, Rhizoupus oryzae lipase ROL; experiment: Hydrolytic activity of surfactant-treated lipase ROL using pNPP as substrate; conditions: protein 0.2 mg·mL^−1
# From the text: (§14) (1) Determination of Hydrolytic Activity of the Lipase Using p-Nitrophenyl Palmitate (pNPP) as Substrate
# (§15) Hydrolysis of pNPP catalyzed by lipase generates p-nitrophenol and palmitic acid. p-nitrophenol appears yellow in the buffer at pH 8.0 with the maximum absorption peak at 410 nm. Determination of hydrolytic activity can be achieved by measuring the absorbance at 410 nm.
# (§16) The substrate solution A: 50 mmol·L^−1 sodium phosphate buffer (pH 8.0) containing 1.16 g·L^−1 sodium deoxycholate and 0.56 g·L^−1 arabic gum. Substrate solution B: 0.015 g pNPP is dissolved in 5 mL isopropyl alcohol. Substrate solution A and substrate solution B are mixed then stored for use afterwards.
# (§17) Termination solution: 40 g·L^−1 NaOH, 93.05 g·L^−1 EDTA sodium. Add 62 uL termination solution to the reaction mixture when stopping the reaction.
# (§18) Add 0.1 mL appropriately diluted enzyme solution, which is substituted by inactivated enzyme solution as the control, to 2.4 mL substrate solution above, incubate the mixture at 40° C. for 2 min and measure the absorbance at 410 nm.
# (§19) one hydrolytic activity unit is defined as the amount of enzyme that catalyzes the formation of 1 μmol of p-nitrophenol in 1 minute at 40° C.
# (§20) enzyme activity (U·mL^−1)=(V×A410×10^6)/(ε×t×V′) Calculation equation: […]
# (§21) Specific activity: the activity of lipase per milligram of total protein in the lipase preparation. […]
# as §12, §13
# [3] = target: T2, Candida antarctica lipase CALB (Moesziomyces antarcticus, UniProt P41365); experiment: Ester synthesis activity of surfactant-treated lyophilized lipase CALB by GC analysis; conditions: surfactant 10 mM, protein 0.12 mg·mL^−1
# T2 construct: purchased Sigma-Aldrich Co., Ltd
# T2 sequence (P41365 26-342): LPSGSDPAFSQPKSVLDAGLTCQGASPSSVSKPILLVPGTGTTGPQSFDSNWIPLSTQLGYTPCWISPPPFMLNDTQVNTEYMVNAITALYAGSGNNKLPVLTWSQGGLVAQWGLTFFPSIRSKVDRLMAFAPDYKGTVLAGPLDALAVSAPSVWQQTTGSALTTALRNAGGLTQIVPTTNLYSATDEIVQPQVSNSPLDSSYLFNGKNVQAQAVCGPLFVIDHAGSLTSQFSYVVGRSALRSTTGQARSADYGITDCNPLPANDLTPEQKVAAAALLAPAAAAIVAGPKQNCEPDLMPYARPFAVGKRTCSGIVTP
# Description: as §1, §2, §3, §4, §5, §6, §7, §8, §9, §10, §11
# (§22) Commercial lipase CALB was purchased from Sigma-Aldrich Co., Ltd. CALB is a non-immobilized lipase. Dissolve the CALB powder in water and centrifuge to obtain the supernatant containing the CALB lipase that would be regulated to improve the ester synthesis activity by adjusting the final protein concentration to 0.12 mg·mL^−1 and adding surfactants to the final concentration of 10 mM.
# (§23) Commercial lipase CALB was purchased from Sigma-Aldrich Co., Ltd. and is a non-immobilized lipase. Dissolve the CALB powder in water, centrifuge to obtain the supernatant and treat the supernatant with different concentrations of surfactant DDM (the final protein concentration was 0.12 mg·mL^−1).
# [4] = system: Rhizopus chinensis lipase r27RCL; experiment: Ester synthesis activity of surfactant-treated lyophilized lipase r27RCL by GC analysis; conditions: protein 0.2 mg·mL^−1
# Description: as §1, §2, §3, §4, §5, §6, §7, §8, §9, §10, §11
# (§24) Commercial lipase r27RCL was purchased from Jiangsu Yiming Biological Technology Co., Ltd, which has high hydrolytic activity and low ester synthesis activity. Dissolve the r27RCL powder in water and centrifuge to obtain the supernatant containing the r27RCL lipase to adjust the ester synthesis activity (the final protein concentration was 0.2 mg·mL^−1 and the final concentration of surfactant was 10 mM, which is between 0.1×CMC^˜200×CMC of the different surfactants in Table 1).
# (§25) Commercial lipase r27RCL was purchased from Jiangsu Yiming Biological Technology Co., Ltd. r27RCL is a lipase with high hydrolytic activity but low ester synthesis activity. Dissolve the r27RCL powder in water, centrifuge to obtain the supernatant and treat the supernatant with different concentrations of surfactant LPC14 (the final protein concentration was 0.2 mg·mL^−1).
# [5] = target: T2, Candida antarctica lipase CALB; experiment: Hydrolytic activity of surfactant-treated lipase CALB using pNPP as substrate; conditions: surfactant 10 mM, protein 0.12 mg·mL^−1
# From the text: as §14, §15, §16, §17, §18, §19, §20, §21, §22, §23
# [6] = target: T3, Pseudomonas cepacia lipase PCL (Burkholderia cepacia, UniProt P22088); experiment: Hydrolytic activity of surfactant-treated lipase PCL using pNPP as substrate; conditions: surfactant 10 mM, protein 0.2 mg·mL^−1
# T3 construct: purchased Sigma-Aldrich Co., Ltd
# T3 sequence (P22088 45-364): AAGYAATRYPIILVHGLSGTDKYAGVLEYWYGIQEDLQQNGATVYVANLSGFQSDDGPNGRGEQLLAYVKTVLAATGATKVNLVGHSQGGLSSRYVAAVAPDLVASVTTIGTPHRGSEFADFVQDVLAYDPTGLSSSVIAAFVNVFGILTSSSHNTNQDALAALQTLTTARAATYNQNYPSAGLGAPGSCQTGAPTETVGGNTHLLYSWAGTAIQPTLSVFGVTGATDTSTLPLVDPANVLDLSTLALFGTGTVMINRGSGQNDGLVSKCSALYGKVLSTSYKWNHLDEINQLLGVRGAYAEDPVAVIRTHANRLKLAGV
# From the text: as §14, §15, §16, §17, §18, §19, §20, §21
# (§26) Commercial lipase PCL was purchased from Sigma-Aldrich Co., Ltd. PCL is a non-immobilized lipase. Dissolve the PCL powder in water and centrifuge to obtain the supernatant containing the PCL lipase that would be regulated to improve the ester synthesis activity by adjusting the final protein concentration to 0.2 mg·mL^−1 and adding surfactants to the final concentration of 10 mM.
# (§27) Commercial lipase PCL was purchased from Sigma-Aldrich Co., Ltd. and is a non-immobilized lipase. Dissolve the PCL powder in water, centrifuge to obtain the supernatant and treat the supernatant with different concentrations of surfactant DDM (the final protein concentration was 0.2 mg·mL^−1).
# [7] = target: T3, Pseudomonas cepacia lipase PCL; experiment: Ester synthesis activity of surfactant-treated lyophilized lipase PCL by GC analysis; conditions: surfactant 10 mM, protein 0.2 mg·mL^−1
# Description: as §1, §2, §3, §4, §5, §6, §7, §8, §9, §10, §11, §26, §27
# [8] = system: Rhizopus chinensis lipase r27RCL; experiment: Hydrolytic activity of surfactant-treated lipase r27RCL using pNPP as substrate; conditions: protein 0.2 mg·mL^−1
# From the text: as §14, §15, §16, §17, §18, §19, §20, §21, §24, §25
# [9] = surfactant concentration 0.1 x CMC
# [10] = surfactant concentration 1 x CMC
# [11] = surfactant concentration 10 x CMC
# [12] = surfactant concentration 100 x CMC
# T1 sequence (P61872 96-392): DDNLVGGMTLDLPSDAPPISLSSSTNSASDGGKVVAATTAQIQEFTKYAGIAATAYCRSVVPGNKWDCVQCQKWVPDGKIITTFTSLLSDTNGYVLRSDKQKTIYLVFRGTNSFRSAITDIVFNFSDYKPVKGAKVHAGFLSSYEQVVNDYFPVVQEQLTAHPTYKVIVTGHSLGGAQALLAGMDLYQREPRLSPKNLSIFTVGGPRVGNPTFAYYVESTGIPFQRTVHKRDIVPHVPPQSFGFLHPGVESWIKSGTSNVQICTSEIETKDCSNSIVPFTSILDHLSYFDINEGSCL
compound,measurement,setting,value
"C[C@H](CCC(=O)NCCC[N+](C)(C)CCCS(=O)(=O)[O-])[C@H]1CC[C@H]2[C@@H]3[C@H](O)C[C@@H]4C[C@H](O)CC[C@]4(C)[C@H]3C[C@H](O)[C@]12C [CHAPS, 3-[(3-Cholamidopropyl)dimethylammonio]-1-propanesulfonate]","Ester synthesis activity, Specific activity",[1]; surfactant 10 mM,2.6 U · mg^−1
same,"Hydrolytic activity, Specific activity",[2]; surfactant 10 mM,23.6 U · mg^−1
same,"Hydrolytic activity, Total recovery",[2]; surfactant 10 mM,81%
same,"Ester synthesis activity, Specific activity",[3],5.9 U · mg^−1
same,"Ester synthesis activity, Total recovery",[3],44%
same,"Ester synthesis activity, Specific activity",[4]; surfactant 10 mM,13.0 U · mg^−1
same,"Ester synthesis activity, Total recovery",[4]; surfactant 10 mM,105%
same,"Hydrolytic activity, Specific activity",[5],1.6 U · mg^−1
same,"Hydrolytic activity, Total recovery",[5],92%
same,"Hydrolytic activity, Specific activity",[6],248.0 U · mg^−1
same,"Hydrolytic activity, Total recovery",[6],101%
same,"Ester synthesis activity, Specific activity",[7],4.7 U · mg^−1
same,"Ester synthesis activity, Total recovery",[7],130%
same,"Hydrolytic activity, Specific activity",[8]; surfactant 10 mM,132.6 U · mg^−1
same,"Hydrolytic activity, Total recovery",[8]; surfactant 10 mM,109%
"CCCCCCCCCCCCCCCC[N+](C)(C)C.[Br-] [CTAB, hexadecyl trimethyl ammonium bromide]","Ester synthesis activity, Specific activity",[1]; surfactant 10 mM,0 U · mg^−1
same,"Ester synthesis activity, Total recovery",[1]; surfactant 10 mM,0%
same,"Hydrolytic activity, Specific activity",[2]; surfactant 10 mM,0 U · mg^−1
same,"Hydrolytic activity, Total recovery",[2]; surfactant 10 mM,0%
same,"Ester synthesis activity, Specific activity",[3],36.6 U · mg^−1
same,"Ester synthesis activity, Total recovery",[3],300%
same,"Ester synthesis activity, Specific activity",[4]; surfactant 10 mM,0 U · mg^−1
same,"Ester synthesis activity, Total recovery",[4]; surfactant 10 mM,0%
same,"Hydrolytic activity, Specific activity",[5],0 U · mg^−1
same,"Hydrolytic activity, Total recovery",[5],0%
same,"Hydrolytic activity, Specific activity",[6],75.5 U · mg^−1
same,"Hydrolytic activity, Total recovery",[6],29%
same,"Ester synthesis activity, Specific activity",[7],0 U · mg^−1
same,"Ester synthesis activity, Total recovery",[7],0%
same,"Hydrolytic activity, Specific activity",[8]; surfactant 10 mM,0 U · mg^−1
same,"Hydrolytic activity, Total recovery",[8]; surfactant 10 mM,0%
"CCCCCCCCCCCCCC(=O)OCC(O)COP(=O)([O-])OCC[N+](C)(C)C (stereo not drawn) [LPC14, 1-myristyl 2-acyl-cis-propyltri-phosphatidylcholine]","Ester synthesis activity, Specific activity",[1]; surfactant 10 mM,12.2 U · mg^−1
same,"Ester synthesis activity, Specific activity",[1]; [9],0.4 U · mg^−1
same,"Ester synthesis activity, Total recovery",[1]; [9],97%
same,"Ester synthesis activity, Specific activity",[1]; [10],0.2 U · mg^−1
same,"Ester synthesis activity, Total recovery",[1]; [10],46%
same,"Ester synthesis activity, Specific activity",[1]; [11],1.0 U · mg^−1
same,"Ester synthesis activity, Total recovery",[1]; [11],240%
same,"Ester synthesis activity, Specific activity",[1]; [12],6.2 U · mg^−1
same,"Hydrolytic activity, Specific activity",[2]; surfactant 10 mM,33.1 U · mg^−1
same,"Hydrolytic activity, Total recovery",[2]; surfactant 10 mM,106%
same,"Hydrolytic activity, Specific activity",[2]; [9],28.7 U · mg^−1
same,"Hydrolytic activity, Total recovery",[2]; [9],150%
same,"Hydrolytic activity, Specific activity",[2]; [10],27.7 U · mg^−1
same,"Hydrolytic activity, Total recovery",[2]; [10],139%
same,"Hydrolytic activity, Specific activity",[2]; [11],31.2 U · mg^−1
same,"Hydrolytic activity, Total recovery",[2]; [11],162%
same,"Hydrolytic activity, Specific activity",[2]; [12],39.0 U · mg^−1
same,"Hydrolytic activity, Total recovery",[2]; [12],206%
same,"Ester synthesis activity, Specific activity",[3],36.8 U · mg^−1
same,"Ester synthesis activity, Specific activity",[4]; surfactant 10 mM,47.6 U · mg^−1
same,"Ester synthesis activity, Specific activity",[4]; [9],1.8 U · mg^−1
same,"Ester synthesis activity, Total recovery",[4]; [9],32%
same,"Ester synthesis activity, Specific activity",[4]; [10],1.4 U · mg^−1
same,"Ester synthesis activity, Total recovery",[4]; [10],25%
same,"Ester synthesis activity, Specific activity",[4]; [12],17.1 U · mg^−1
same,"Ester synthesis activity, Total recovery",[4]; [12],292%
same,"Hydrolytic activity, Specific activity",[5],0.54 U · mg^−1
same,"Hydrolytic activity, Total recovery",[5],38%
same,"Hydrolytic activity, Specific activity",[6],321.8 U · mg^−1
same,"Hydrolytic activity, Total recovery",[6],119%
same,"Ester synthesis activity, Specific activity",[7],44.6 U · mg^−1
same,"Hydrolytic activity, Total recovery",[8]; surfactant 10 mM,97%
same,"Hydrolytic activity, Specific activity",[8]; [9],120.2 U · mg^−1
same,"Hydrolytic activity, Total recovery",[8]; [9],101%
same,"Hydrolytic activity, Specific activity",[8]; [10],122.2 U · mg^−1
same,"Hydrolytic activity, Total recovery",[8]; [10],102%
same,"Hydrolytic activity, Specific activity",[8]; [11],128.0 U · mg^−1
same,"Hydrolytic activity, Total recovery",[8]; [11],107%
same,"Hydrolytic activity, Specific activity",[8]; [12],125.7 U · mg^−1
same,"Hydrolytic activity, Total recovery",[8]; [12],102%

# From US20190185829A1, “Preparation of lipase with improved ester synthesis activity by using surfactants” (Jiangnan University, priority 2017, published 2019)
